Results published in patent US20210254056A1, “IDENTIFICATION AND TARGETED MODULATION OF GENE SIGNALING NETWORKS” (CAMP4 THERAPEUTICS CORPORATION, priority 2017, published 2021).

Tests used:
[1] = system: primary human hepatocytes; experiment: RNA-seq of primary human hepatocytes treated with 39 small molecules (pilot and validation); settings: for significant modulation of gene expression: RNA-seq, p-value≤0.05, primary human hepatocytes, the modulated genes are listed in the block; for Number (#) of genes having significantly changed expression: pilot RNA-seq study of Example 2, significance: FPKM≥0.5, log 2(fold change)≥1, q-value ≤0.05
hepatocytes = experiment: RNA-seq of hepatocytes treated with Phase III failure compounds; settings: for significant changes in gene expression: RNA-seq of Table 36, FPKM≥0.5, log 2(fold-change)≥1, q-value≤0.05; for significant modulation of expression of any of the genes analyzed: p≤0.05
Description: RNA-seq was performed to determine the effects of the compounds on hepatocytes.
Significance was determined by the criteria of FPKM≥0.5, a log 2(fold-change)≥1, and a […].

CC(C)Cc1ccc(C(C)C(=O)O)cc1 (centres unmarked) [MT-662, Ibuprofen]
significant modulation of gene expression [1]: significantly (p-value≤0.05) modulate
Number (#) of genes having significantly changed expression [1]: 18

CCCC(CCC)C(=O)O [MT-625, Valproate]
Number (#) of genes having significantly changed expression [1]: 4

CNCc1ccc(C)c(NC(=O)c2ccc(Nc3nc(-c4ccccc4)c4ccccc4n3)cc2)c1 [MT-636, Bms833923]
significant modulation of gene expression [1]: significantly (p-value≤0.05) modulate
Number (#) of genes having significantly changed expression [1]: 66

Cc1ccc(NC(=O)c2ccc(CN3CCN(C)CC3)cc2)cc1Nc1nccc(-c2cccnc2)n1 [MT-182, Imatinib]
significant modulation of gene expression [1]: significantly (p-value≤0.05) modulate
Number (#) of genes having significantly changed expression [1]: 31

CN[C@@]1(C)[C@@H]2CC[C@@H](C2)C1(C)C [TC-5214]
Number (#) of genes having significantly changed expression (hepatocytes): 30

Cn1cc(C2=C(c3cn(C4CCN(Cc5ccccn5)CC4)c4ccccc34)C(=O)NC2=O)c2ccccc21 [Enzstaurin]
Number (#) of genes having significantly changed expression (hepatocytes): 971

CS(=O)(=O)c1cc(F)cc2c3c(n(Cc4ccc(Cl)cc4)c12)[C@@H](CC(=O)O)CC3 [Laropiprant (tredaptive), Laropiprant]
significant changes in gene expression (hepatocytes): not observed to cause any significant changes in gene expression
significant modulation of expression of any of the genes analyzed (hepatocytes; RNA-seq, hepatocytes): not observed to significantly modulate expression

CSCC[C@H](N)C(=O)N[C@@]1(C(=O)O)CS(=O)(=O)[C@H]2[C@H](C(=O)O)[C@H]21 [Pomaglumetad methionil]
significant changes in gene expression (hepatocytes): not observed to cause any significant changes in gene expression
significant modulation of expression of any of the genes analyzed (hepatocytes; RNA-seq, hepatocytes): not observed to significantly modulate expression

COc1cc2c(Oc3ccc4[nH]c(C)cc4c3F)ncnc2cc1OCCCN1CCCC1 [Cediranib]
RNA-seq results, CYP2B6 expression (hepatocytes): −0.46
RNA-seq results, CYP2C19 expression (hepatocytes): −0.80
RNA-seq results, CYP2D6 expression (hepatocytes): −0.12
RNA-seq results, CYP3A4 expression (hepatocytes): −0.75
RNA-seq results, CYP7B1 expression (hepatocytes): −0.93
RNA-seq results, CYP39A1 expression (hepatocytes): −0.61
RNA-seq results: CYP2B6 expression (hepatocytes): 0.41
RNA-seq results: CYP2C19 expression (hepatocytes): −1
RNA-seq results: CYP2D6 expression (hepatocytes): 0.79
RNA-seq results: CYP3A4 expression (hepatocytes): 1.58
RNA-seq results: CYP7B1 expression (hepatocytes): −0.02
RNA-seq results: CYP39A1 expression (hepatocytes): −0.24
significant modulation of expression of disease genes (hepatocytes; RNA-seq, q≤0.05, hepatocytes, genes in the value or listed in the block): significantly (q≤0.05) modulate expression
effect on disease gene expression (hepatocytes; RNA-seq, hepatocytes): effect on expression of too many disease genes
genes down-regulated by the compound (hepatocytes; RNA-seq, hepatocytes, gene named in the value): down-regulate Factor V levels
RNA-seq results: A1BG expression (hepatocytes; gene A1BG, hepatocytes): 0.15
RNA-seq results: AGTR1 expression (hepatocytes; gene AGTR1, hepatocytes): −0.32
RNA-seq results: AGXT expression (hepatocytes; gene AGXT, hepatocytes): −0.23
RNA-seq results: AHI1 expression (hepatocytes; gene AHI1, hepatocytes): −0.17
RNA-seq results: AMPD3 expression (hepatocytes; gene AMPD3, hepatocytes): −0.52
RNA-seq results: AMT expression (hepatocytes; gene AMT, hepatocytes): −0.23
RNA-seq results: ANGPTL3 expression (hepatocytes; gene ANGPTL3, hepatocytes): −1.40
RNA-seq results: ANKS4B expression (hepatocytes; gene ANKS4B, hepatocytes): −0.31
RNA-seq results: ANKS6 expression (hepatocytes; gene ANKS6, hepatocytes): 0.09
RNA-seq results: ANPEP expression (hepatocytes; gene ANPEP, hepatocytes): −0.85
RNA-seq results: AOC2 expression (hepatocytes; gene AOC2, hepatocytes): −0.47
RNA-seq results: APOA2 expression (hepatocytes; gene APOA2, hepatocytes): 0.16
RNA-seq results: APOA5 expression (hepatocytes; gene APOA5, hepatocytes): −0.08
RNA-seq results: APOB expression (hepatocytes; gene APOB, hepatocytes): −0.99
RNA-seq results: COG5 expression (hepatocytes; gene COG5, hepatocytes): −0.45
RNA-seq results: COG6 expression (hepatocytes; gene COG6, hepatocytes): −0.46
RNA-seq results: COL1A1 expression (hepatocytes; gene COL1A1, hepatocytes): −0.72
RNA-seq results: COX6A1 expression (hepatocytes; gene COX6A1, hepatocytes): 0.16
RNA-seq results: CP expression (hepatocytes; gene CP, hepatocytes): 0.53
RNA-seq results: CPS1 expression (hepatocytes; gene CPS1, hepatocytes): −0.28
RNA-seq results: CPT1A expression (hepatocytes; gene CPT1A, hepatocytes): 0.16
RNA-seq results: CPT2 expression (hepatocytes; gene CPT2, hepatocytes): 1.26
RNA-seq results: CROT expression (hepatocytes; gene CROT, hepatocytes): 0.55
RNA-seq results: CSPP1 expression (hepatocytes; gene CSPP1, hepatocytes): −0.7
RNA-seq results: CTC1 expression (hepatocytes; gene CTC1, hepatocytes): −0.9
RNA-seq results: CTDSP2 expression (hepatocytes; gene CTDSP2, hepatocytes): −0.18
RNA-seq results: CTH expression (hepatocytes; gene CTH, hepatocytes): 0.66
RNA-seq results: CTNS expression (hepatocytes; gene CTNS, hepatocytes): −1.18
RNA-seq results: CTSF expression (hepatocytes; gene CTSF, hepatocytes): 0.6
RNA-seq results: CTSK expression (hepatocytes; gene CTSK, hepatocytes): 0.02
RNA-seq results: CYB5A expression (hepatocytes; gene CYB5A, hepatocytes): −0.16
RNA-seq results: CYB5R3 expression (hepatocytes; gene CYB5R3, hepatocytes): 0.14
RNA-seq results: CYP27A1 expression (hepatocytes; gene CYP27A1, hepatocytes): 0.51
RNA-seq results: DAO expression (hepatocytes; gene DAO, hepatocytes): 0.23
RNA-seq results: DBT expression (hepatocytes; gene DBT, hepatocytes): −0.33
RNA-seq results: DCDC2 expression (hepatocytes; gene DCDC2, hepatocytes): −1.25
RNA-seq results: DCXR expression (hepatocytes; gene DCXR, hepatocytes): 0.96
RNA-seq results: FABP1 expression (hepatocytes; gene FABP1, hepatocytes): 0.4
RNA-seq results: FADD expression (hepatocytes; gene FADD, hepatocytes): −0.23
RNA-seq results: FAM111A expression (hepatocytes; gene FAM111A, hepatocytes): −0.68
RNA-seq results: FAM111B expression (hepatocytes; gene FAM111B, hepatocytes): −0.13
RNA-seq results: FAN1 expression (hepatocytes; gene FAN1, hepatocytes): −1.14
RNA-seq results: FARS2 expression (hepatocytes; gene FARS2, hepatocytes): −0.84
RNA-seq results: FASLG expression (hepatocytes; gene FASLG, hepatocytes): −1.48
RNA-seq results: FGA expression (hepatocytes; gene FGA, hepatocytes): 0.87
RNA-seq results: FGD1 expression (hepatocytes; gene FGD1, hepatocytes): −0.22
RNA-seq results: FGFR2 expression (hepatocytes; gene FGFR2, hepatocytes): −0.16
RNA-seq results: FIG4 expression (hepatocytes; gene FIG4, hepatocytes): −0.45
RNA-seq results: FIS1 expression (hepatocytes; gene FIS1, hepatocytes): −0.27
RNA-seq results: FTCD expression (hepatocytes; gene FTCD, hepatocytes): −0.68
RNA-seq results: FTH1 expression (hepatocytes; gene FTH1, hepatocytes): −0.17
RNA-seq results: FUCA1 expression (hepatocytes; gene FUCA1, hepatocytes): 1.44
RNA-seq results: FXN expression (hepatocytes; gene FXN, hepatocytes): −1.56
RNA-seq results: G6PC3 expression (hepatocytes; gene G6PC3, hepatocytes): −0.89
RNA-seq results: G6PC expression (hepatocytes; gene G6PC, hepatocytes): 0.32
RNA-seq results: G6PD expression (hepatocytes; gene G6PD, hepatocytes): 1.51
RNA-seq results: GALK1 expression (hepatocytes; gene GALK1, hepatocytes): −0.27
RNA-seq results: GALK2 expression (hepatocytes; gene GALK2, hepatocytes): 0.04
RNA-seq results: GALT expression (hepatocytes; gene GALT, hepatocytes): −0.02
RNA-seq results: GATA6 expression (hepatocytes; gene GATA6, hepatocytes): −0.1
RNA-seq results: GATM expression (hepatocytes; gene GATM, hepatocytes): −0.66
RNA-seq results: GBA expression (hepatocytes; gene GBA, hepatocytes): −0.06
RNA-seq results: GBE1 expression (hepatocytes; gene GBE1, hepatocytes): −0.62
RNA-seq results: GCH1 expression (hepatocytes; gene GCH1, hepatocytes): 1.49
RNA-seq results: GCKR expression (hepatocytes; gene GCKR, hepatocytes): −1.15
RNA-seq results: GCLC expression (hepatocytes; gene GCLC, hepatocytes): 0.3
RNA-seq results: GOSH expression (hepatocytes; gene GOSH, hepatocytes): −0.39
RNA-seq results: RRM2B (hepatocytes; gene RRM2B, hepatocytes): −0.75
RNA-seq results: RSAD1 (hepatocytes; gene RSAD1, hepatocytes): 0.13
RNA-seq results: SAMHD1 (hepatocytes; gene SAMHD1, hepatocytes): −1.05
RNA-seq results: SC5D (hepatocytes; gene SC5D, hepatocytes): 0.51
RNA-seq results: SCARB1 (hepatocytes; gene SCARB1, hepatocytes): −0.30
RNA-seq results: SCN9A (hepatocytes; gene SCN9A, hepatocytes): −0.39
RNA-seq results: SDCCAG8 (hepatocytes; gene SDCCAG8, hepatocytes): −0.30
RNA-seq results: SEPN1 (hepatocytes; gene SEPN1, hepatocytes): −0.85
RNA-seq results: SERAC1 (hepatocytes; gene SERAC1, hepatocytes): −0.14
RNA-seq results: SERPINA1 (hepatocytes; gene SERPINA1, hepatocytes): −0.19
RNA-seq results: SERPING1 (hepatocytes; gene SERPING1, hepatocytes): −0.29
RNA-seq results: SERPINI1 (hepatocytes; gene SERPINI1, hepatocytes): −0.73
RNA-seq results: SETBP1 (hepatocytes; gene SETBP1, hepatocytes): −0.30
RNA-seq results: SFXN4 (hepatocytes; gene SFXN4, hepatocytes): −0.01
RNA-seq results: SLC10A1 (hepatocytes; gene SLC10A1, hepatocytes): −0.88
RNA-seq results: SLC10A3 (hepatocytes; gene SLC10A3, hepatocytes): −0.50
RNA-seq results: SLC10A5 (hepatocytes; gene SLC10A5, hepatocytes): −0.90
RNA-seq results: SLC10A7 (hepatocytes; gene SLC10A7, hepatocytes): −0.52
RNA-seq results: SLC11A2 (hepatocytes; gene SLC11A2, hepatocytes): −0.59
RNA-seq results: SLC19A1 (hepatocytes; gene SLC19A1, hepatocytes): −0.45
RNA-seq results: SLC19A2 (hepatocytes; gene SLC19A2, hepatocytes): −0.03
RNA-seq results: SLC19A3 (hepatocytes; gene SLC19A3, hepatocytes): −0.68
RNA-seq results: SLC22A1 (hepatocytes; gene SLC22A1, hepatocytes): −0.13
RNA-seq results: SLC22A5 (hepatocytes; gene SLC22A5, hepatocytes): 0.06
RNA-seq results: SLC25A1 (hepatocytes; gene SLC25A1, hepatocytes): −0.09
RNA-seq results: SLC25A10 (hepatocytes; gene SLC25A10, hepatocytes): −0.40
RNA-seq results: SLC25A12 (hepatocytes; gene SLC25A12, hepatocytes): −0.41
RNA-seq results: SLC25A13 (hepatocytes; gene SLC25A13, hepatocytes): −0.29
RNA-seq results: SLC25A15 (hepatocytes; gene SLC25A15, hepatocytes): −0.47
RNA-seq results: SLC25A19 (hepatocytes; gene SLC25A19, hepatocytes): 0.26
RNA-seq results: SLC25A20 (hepatocytes; gene SLC25A20, hepatocytes): −0.32
RNA-seq results: SLC25A29 (hepatocytes; gene SLC25A29, hepatocytes): −0.11
RNA-seq results: SLC25A32 (hepatocytes; gene SLC25A32, hepatocytes): −0.13
